Measured values taken from the NIST ThermoML archive (doi:10.1016/j.jct.2017.08.004).
Numbers after ± are expanded uncertainties.

Assay: molar heat capacity at constant pressure
Details: 101.33 kPa

OC[C@@H](O)C(O)[C@H](O)CO [D-arabitol]
molar heat capacity at constant pressure [J/K/mol]
Details	Small sample (50 mg) DSC	relaxation calorimetry
250.15 K, Crystal	167.62 ± 14	–
251.15 K, Crystal	168.09 ± 14	–
252.02 K, Crystal	–	171.93 ± 11
252.15 K, Crystal	168.72 ± 14	–
253.15 K, Crystal	169.42 ± 14	–
254.15 K, Crystal	170.21 ± 14	–
255.15 K, Crystal	170.83 ± 14	–
256.15 K, Crystal	171.49 ± 14	–
257.15 K, Crystal	172.29 ± 14	–
258.15 K, Crystal	172.95 ± 14	–
259.15 K, Crystal	173.8 ± 14	–
260 K, Crystal	–	176.9 ± 11
260.15 K, Crystal	174.49 ± 14	–
261.15 K, Crystal	175.07 ± 14	–
262.08 K, Crystal	–	178.58 ± 11
262.15 K, Crystal	175.71 ± 14	–
263.15 K, Crystal	176.2 ± 14	–
264.15 K, Crystal	176.94 ± 14	–
265.15 K, Crystal	177.53 ± 14	–
266.15 K, Crystal	177.9 ± 14	–
267.15 K, Crystal	178.76 ± 15	–
268.15 K, Crystal	179.47 ± 15	–
269.15 K, Crystal	180.14 ± 15	–
270 K, Crystal	–	183.17 ± 11
270.15 K, Crystal	180.88 ± 15	–
271.15 K, Crystal	181.55 ± 15	–
272.1 K, Crystal	–	184.8 ± 11
272.15 K, Crystal	182.34 ± 15	–
273.15 K, Crystal	183.05 ± 15	185.17 ± 11
274.15 K, Crystal	183.84 ± 15	–
275.15 K, Crystal	184.43 ± 15	–
276.15 K, Crystal	185.01 ± 15	–
277.15 K, Crystal	185.89 ± 15	–
278.15 K, Crystal	186.82 ± 15	–
279.15 K, Crystal	187.46 ± 15	–
280 K, Crystal	–	189.54 ± 12
280.15 K, Crystal	187.87 ± 15	–
281.15 K, Crystal	188.79 ± 15	–
282.15 K, Crystal	189.61 ± 15	–
282.16 K, Crystal	–	190.77 ± 12
283.15 K, Crystal	190.26 ± 15	–
284.15 K, Crystal	190.76 ± 16	–
285.15 K, Crystal	191.48 ± 16	–
286.15 K, Crystal	192.29 ± 16	–
287.15 K, Crystal	192.88 ± 16	–
288.15 K, Crystal	193.55 ± 16	–
289.15 K, Crystal	194.1 ± 16	–
290 K, Crystal	–	196 ± 12
290.15 K, Crystal	195.02 ± 16	–
291.15 K, Crystal	195.84 ± 16	–
292.15 K, Crystal	196.49 ± 16	–
292.31 K, Crystal	–	197.61 ± 12
293.15 K, Crystal	197.3 ± 16	–
294.15 K, Crystal	198.27 ± 16	–
295.15 K, Crystal	198.8 ± 16	–
296.15 K, Crystal	199.7 ± 16	–
297.15 K, Crystal	200.51 ± 16	–
298.15 K, Crystal	201.09 ± 16	201.35 ± 12
299.15 K, Crystal	201.8 ± 16	–
300 K, Crystal	–	202.57 ± 12
300.15 K, Crystal	202.43 ± 16	–
301.15 K, Crystal	203.27 ± 17	–
302.15 K, Crystal	203.89 ± 17	–
302.32 K, Crystal	–	203.84 ± 12
303.15 K, Crystal	204.69 ± 17	–
304.15 K, Crystal	205.64 ± 17	–
305 K, Crystal	206.38 ± 17	–
305.15 K, Crystal	206.52 ± 17	–
306.15 K, Crystal	207.29 ± 17	–
307.15 K, Crystal	207.99 ± 17	–
308.15 K, Crystal	209.04 ± 17	–
309.15 K, Crystal	210.24 ± 17	–
310 K, Crystal	210.77 ± 17	–
310.15 K, Crystal	211.11 ± 17	–
311.15 K, Crystal	212.09 ± 17	–
312.15 K, Crystal	213.04 ± 17	–
313.15 K, Crystal	213.93 ± 17	–
314.15 K, Crystal	214.62 ± 17	–
315 K, Crystal	215.3 ± 17	–
315.15 K, Crystal	215.49 ± 18	–
316.15 K, Crystal	216.44 ± 18	–
317.15 K, Crystal	217.32 ± 18	–
318.15 K, Crystal	218.08 ± 18	–
319.15 K, Crystal	218.98 ± 18	–
320 K, Crystal	219.92 ± 18	–
320.15 K, Crystal	219.94 ± 18	–
321.15 K, Crystal	220.72 ± 18	–
322.15 K, Crystal	221.63 ± 18	–
323.15 K, Crystal	222.6 ± 18	–
324.15 K, Crystal	223.41 ± 18	–
325 K, Crystal	224.62 ± 18	–
325.15 K, Crystal	224.24 ± 18	–
326.15 K, Crystal	225.48 ± 18	–
327.15 K, Crystal	226.61 ± 18	–
328.15 K, Crystal	227.57 ± 18	–
329.15 K, Crystal	228.54 ± 19	–
330 K, Crystal	229.51 ± 19	–
330.15 K, Crystal	229.69 ± 19	–
331.15 K, Crystal	231.05 ± 19	–
332.15 K, Crystal	232.16 ± 19	–
333.15 K, Crystal	233.08 ± 19	–
334.15 K, Crystal	234.14 ± 19	–
335 K, Crystal	234.75 ± 19	–
335.15 K, Crystal	235.21 ± 19	–
336.15 K, Crystal	236.36 ± 19	–
337.15 K, Crystal	237.46 ± 19	–
338.15 K, Crystal	238.56 ± 19	–
339.15 K, Crystal	239.77 ± 19	–
340 K, Crystal	240.61 ± 20	–
340.15 K, Crystal	240.89 ± 20	–
341.15 K, Crystal	242.17 ± 20	–
342.15 K, Crystal	243.41 ± 20	–
343.15 K, Crystal	244.65 ± 20	–
344.15 K, Crystal	245.91 ± 20	–
345 K, Crystal	247.41 ± 20	–
345.15 K, Crystal	247.41 ± 20	–
346.15 K, Crystal	248.94 ± 20	–
350 K, Crystal	255.58 ± 21	–
394.05 K, Liquid	448.1 ± 36	–
394.15 K, Liquid	448.11 ± 36	–
395 K, Liquid	447.62 ± 36	–
395.15 K, Liquid	447.51 ± 36	–
396.15 K, Liquid	447.26 ± 36	–
397.15 K, Liquid	446.68 ± 36	–
398.15 K, Liquid	446.29 ± 36	–
399.15 K, Liquid	446.43 ± 36	–
400 K, Liquid	446.52 ± 36	–
400.15 K, Liquid	446.4 ± 36	–
401.15 K, Liquid	446.31 ± 36	–
402.15 K, Liquid	446.59 ± 36	–
403.15 K, Liquid	447.05 ± 36	–
404.15 K, Liquid	446.97 ± 36	–
405 K, Liquid	447.4 ± 36	–
405.15 K, Liquid	447.29 ± 36	–
406.15 K, Liquid	447.83 ± 36	–
407.15 K, Liquid	447.84 ± 36	–
408.15 K, Liquid	448.15 ± 36	–
409.15 K, Liquid	448.6 ± 36	–
410 K, Liquid	449.23 ± 36	–
410.15 K, Liquid	448.95 ± 36	–
411.15 K, Liquid	449.41 ± 37	–
412.15 K, Liquid	449.97 ± 37	–
413.15 K, Liquid	450.76 ± 37	–
414.15 K, Liquid	451.47 ± 37	–
415 K, Liquid	452.02 ± 37	–
415.15 K, Liquid	452.79 ± 37	–
416.15 K, Liquid	453.35 ± 37	–
417.15 K, Liquid	453.87 ± 37	–
418.15 K, Liquid	454.54 ± 37	–
419.15 K, Liquid	456.24 ± 37	–
420 K, Liquid	455.76 ± 37	–
420.15 K, Liquid	456.5 ± 37	–
421.15 K, Liquid	457.07 ± 37	–
422.15 K, Liquid	457.63 ± 37	–
423.15 K, Liquid	457.94 ± 37	–
424.15 K, Liquid	458.28 ± 37	–
